Key:
[1] = system: rats; assay: Increase in intragastric pressure; type: in vivo; settings: dose level of 1.0 mg/kg s.c.; conscious but restrained rats; average height of pressure waves, 40 minute period after administration vs pre-dose; Student's t test
Description: Intragastric pressure changes were recorded from previously starved conscious but restrained rats using a saline filled catheter inserted into the lumen of the stomach via a permanent gastric fistula. The catheter was connected to a physiological pressure transducer and pressure changes recorded on a hot wire pen recorder. In each animal a pre-dose period of 40 minutes was allowed to obtain a measure of spontaneous activity. An index of activity was obtained by measuring the average height of pressure waves during 10 minute periods. Values for 4 such periods were obtained during assessment of spontaneous activity and for 40 minute period after administration of compound. Student's "t" test was applied to the difference in average values obtained for spontaneous and post compound activity.

[2] = system: dog; assay: Anti-emetic activity in the dog (apomorphine-induced vomiting); type: in vivo; settings: compound subcutaneously 30 minutes prior to apomorphine HC1 0.1 mg/kg subcutaneously; for ED50: Canis lupus familiaris, sc, read-out: ED50 values for inhibition of the vomiting response
Description: Compounds were administered subcutaneously 30 minutes prior to administration of a standard dose of apomorphine HC1 (0.1 mg/kg subcutaneously) and the vomiting response compared to that obtained when the same animals were dosed with apomorphine HC1 and vehicle only. The ED50 values for inhibition of the vomiting response determined for compound 11 and 13 were 1.0 mg/kg; for compound 33, 0.1 mg/kg and for compound 35, 0.01 mg/kg.

COc1cc(N)c(Cl)cc1C(=O)N[C@@H]1C[C@@H]2CCCN2[C@H](C)C1 (racemic) [Compound 8, (±) 4-Amino-5-chloro-2-methoxy-N-[7'β-(9'β-methyl-1'-aza-5'α-H-bicyclo[4,3,n]nonyl)]benzamide]
index of activity post administration [1]: significantly increased

COc1cc(N)c(Cl)cc1C(=O)N[C@H]1C[C@@H]2CCCN2[C@H](C)C1 (racemic) [Compound 9, (±) 4-Amino-5-chloro-2-methoxy-N-[7'α-(9'β-methyl-1'-aza-5'α-H-bicyclo[4,3,0]nonyl)]benzamide]
index of activity post administration [1]: significantly increased

COc1cc(N)c(Cl)cc1C(=O)N[C@@H]1C[C@@H]2CCCN2[C@@H](C)C1 (racemic) [Compound 11, (±) 4-Amino-5-chloro-2-methoxy-rd-[7'β-(9'α-methyl-1'-aza-5α-H-bicyclo[4,3,0]nonyl)]benzamide]
index of activity post administration [1]: significantly increased
ED50 [2]: 1 mg/kg

COc1cc(N)c(Cl)cc1C(=O)N[C@H]1C[C@@H]2CCCN2[C@@H](C)C1 (racemic) [Compound 13, (±) 4-Amino-5-chloro-2-methoxy-N-[7'α-(9'α-methyl-1'-aza-5α-H-bicyclo[4,3,0]nonyl)]benzamide]
ED50 [2]: 1 mg/kg

CC[C@H]1C[C@H](NC(=O)c2cc(Cl)c(N)cc2OC)C[C@@H]2CCCN12 (racemic) [Compound 33, (±) 4-Amino-5-chloro-2-methoxy-N-[7'β-(9'α-ethyl-1'-aza-5'α-H-bicyclo[4,3,0]nonyl)]benzamide]
ED50 [2]: 0.1 mg/kg

(±) 4-Amino-5-chloro-2-methoxy-N-[7'β-(9'α-isopropyl-1'-aza-5'-α-H-bicyclo[4,3,0]nonyl)]benzamide [Compound 35]
ED50 values for inhibition of the vomiting response [2]: 0.01 mg/kg
